Experiment in all cases: NCI tumour cell line growth inhibition, 48 h
The subject of experiment [1] is SR leukemia.
Experiment [2] concerns HL-60(TB) leukemia.
Experiment [3] has as its system SNB-19 CNS.
For experiment [4], the system named is MDA-N.
Experiment [5] has as its system UO-31 renal.
Experiment [6] concerns SK-MEL-5 melanoma.
The test system of experiment [7] is SF-295 CNS.
The test system of experiment [8] is COLO 205 colon.
Experiment [9] concerns UACC-62 melanoma.
Experiment [10] has as its system 786-0 renal.
In experiment [11] the test system is NCI-H522 lung.

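Interpolation was linear, between the two tested concentrations surrounding the appropriate level; five concentrations were tested over 48 hours in 96-well plates. TGI marks complete inhibition of growth.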

Experimental findings from PubChem BioAssay (NCI) are described below.

Take `COc1ccc2nc3cc([N+](=O)[O-])ccc3c(Nc3ccc(S(=O)(=O)NC(C)=O)cc3)c2c1`: the TGI in experiment [1] is 75.8 µM; in experiment [2], over 100 µM; in [3] it was over 100 µM; in experiment [4], over 100 µM; in experiment [5], over 100 µM; in experiment [6] it was over 100 µM. Moreover, the TGI in [7], in experiment [8], in experiment [9], in experiment [10] and in experiment [11] was over 100 µM throughout.
For the molecule `C[C@H]1C[C@H]2[C@@H]3C(C)(C)O[C@]4(O)C(=O)[C@]5(O)[C@@H](C)CC[C@H]1[C@]25C(=O)[C@]34C`, the TGI in experiment [1] was 96.6 µM; in [2], 59.2 µM; in experiment [3], over 100 µM; in [4], over 100 µM; in experiment [5], over 100 µM; in experiment [6] it was 81.7 µM. The TGI in experiment [7] was 77.5 µM; in experiment [8] it was 38.6 µM; in experiment [9], over 100 µM; in experiment [10], over 100 µM; in experiment [11], 48 µM.
With `COc1ccc(C(SC2C(O)C(CO)OC2n2ccc(N)nc2=O)(c2ccccc2)c2ccc(OC)cc2)cc1` (centres undefined), the TGI in experiment [1] turned out to be 58 µM; in experiment [2], 69.4 µM; in [3], 64.4 µM; in [4] it was 24.2 µM; in experiment [5], 42.8 µM; in [6], 25.6 µM. Further, the TGI in experiment [7] was found to be 49.8 µM; in experiment [8], 28.7 µM; in [9] it was 33 µM; in experiment [10] it was 30.8 µM; in experiment [11], 31.2 µM.
For the molecule `C=C(CO[Si](C)(C)C(C)(C)C)C(C)=O`, the TGI was over 31.6 µM in experiment [1]; over 100 µM in [2]; over 100 µM in [3]; 32.3 µM in experiment [4]; over 66 µM in experiment [5]; 28.4 µM in experiment [6]. In addition, the TGI is over 100 µM in [7]; over 71 µM in experiment [8]; 30.5 µM in [9]; 34.3 µM in experiment [10]; 17.3 µM in experiment [11].
Regarding `CCOP(=O)(OCC)C1CC(n2cc(C)c(=O)[nH]c2=O)OC1CO` (centres undefined), the TGI in experiment [1], in experiment [2], in experiment [3], in experiment [4], in experiment [5] and in experiment [6] was over 100 µM each time. Further, the TGI in [7], in experiment [9], in experiment [10] and in experiment [11] was over 100 µM each time.
For the molecule `O=C(Nc1ccccc1)N(CCCCN(Cc1ccccc1)C(=O)Nc1ccccc1)Cc1ccccc1`, the TGI in experiment [1], in experiment [2], in experiment [3], in experiment [4], in experiment [5] and in [6] was over 100 µM each time. Besides, the TGI in [7], in experiment [8], in [9], in [10] and in experiment [11] was over 100 µM throughout.
For `S=C1SCN(Cc2ccco2)CN1c1ccc(Br)cc1`, the TGI in experiment [1] stood at 31.4 µM; in experiment [2], 45.8 µM; in experiment [3] it was 72.2 µM; in [4] it was 94.8 µM; in experiment [5], 44.9 µM; in [6], 24.5 µM. Also, the TGI amounted to 28.7 µM in experiment [7]; 32 µM in experiment [8]; 15.2 µM in [9]; 33 µM in experiment [10]; 23.7 µM in experiment [11].
For the molecule `Cc1ccc2c(c1C)C(=O)/C(=C/c1ccccc1C(=O)O)C2`, the TGI in experiment [1], in experiment [2], in experiment [3], in experiment [4], in experiment [5] and in [6] was over 100 µM each time. In addition, the TGI in experiment [7], in experiment [8], in experiment [9], in experiment [10] and in [11] was over 100 µM throughout.
In the case of `CC(C)C(OC(=O)c1ccc(NCc2cc(O)ccc2O)cc1)C(C)C`, the TGI in experiment [1] came out at 2.43 µM; in experiment [2], 0.484 µM; in experiment [3], 7.06 µM; in experiment [4], 12.9 µM; in experiment [5], 2.42 µM; in experiment [6], 7.45 µM. Besides, the TGI is 15.4 µM in experiment [7]; 5.56 µM in experiment [8]; 3.27 µM in [9]; 2.42 µM in [10]; 0.391 µM in [11].
On to `CCOC(=O)c1cc2c(C(=O)c3ccc([N+](=O)[O-])cc3)c(C(C)=O)ccc2[nH]1`, for which the TGI in experiment [1] was over 100 µM; in experiment [2] it was over 100 µM; in experiment [3], 87.9 µM; in experiment [4], over 100 µM; in experiment [5] it was over 100 µM; in experiment [6], over 100 µM. The TGI in [7] is over 100 µM; in [8], over 100 µM; in experiment [9], over 100 µM; in experiment [10] it was over 100 µM; in experiment [11], 36.5 µM.
For the molecule `O=C(Nc1nc2ccccc2s1)c1cc([N+](=O)[O-])ccc1Cl`, the TGI in experiment [1] was over 100 µM; in [2] it was 4.41 µM; in [3], over 100 µM; in [4] it was over 31.6 µM; in experiment [5] it was over 100 µM; in experiment [6] it was 25.1 µM. Further, the TGI was over 100 µM in [7]; over 100 µM in experiment [8]; over 100 µM in [9]; over 58.6 µM in experiment [10]; 11.6 µM in [11].
`CCCCCCCCCCCCCCCCCCNc1ccn(C2OC(COP(=O)(O)OCC3OC(n4cc(F)c(NCCCCCCCCCCCCCCCCCC)nc4=O)CC3O)C(O)C2O)c(=O)n1` (centres undefined): the TGI in experiment [1], in experiment [2], in experiment [3], in [4], in experiment [5] and in experiment [6] was over 100 µM throughout. Further, the TGI in experiment [7], in experiment [8], in [9], in [10] and in [11] was over 100 µM in each case.
For `CC1=NN(c2nc(N)nc(/C(C#N)=C/c3cccn3-c3cc(Cl)cc(Cl)c3)n2)C(C)(C)C1`, the TGI in experiment [1], in [2], in [3], in [4], in experiment [5] and in [6] was over 100 µM each time. For the same molecule, the TGI in [7], in [8], in experiment [9], in experiment [10] and in experiment [11] was over 100 µM throughout.
In the case of `COc1ccc(C)cc1Nc1nnc(-c2ccccc2N)s1`, the TGI was 46.7 µM in experiment [1]; 73 µM in experiment [2]; over 100 µM in experiment [3]; over 100 µM in experiment [4]; over 100 µM in experiment [5]; 29.4 µM in experiment [6]. Further, the TGI in experiment [7] is over 100 µM; in experiment [8], over 100 µM; in experiment [9], over 100 µM; in experiment [10], over 100 µM; in experiment [11], 58.7 µM.
As for `O=C(O)c1ccn(-c2cccc(-n3ccc(C(=O)O)n3)n2)n1`, the TGI in [1], in experiment [2], in experiment [3], in experiment [4], in experiment [5] and in experiment [6] was over 100 µM throughout. The TGI in experiment [7], in experiment [8], in experiment [9], in [10] and in experiment [11] was over 100 µM in each case.
As to `Oc1c([Si](c2ccccc2)(c2ccccc2)c2ccccc2)cc2ccccc2c1-c1c(O)c([Si](c2ccccc2)(c2ccccc2)c2ccccc2)cc2ccccc12`, the TGI in experiment [1], in [2], in [3], in experiment [4], in [5] and in [6] was over 100 µM in each case. The TGI in [7], in experiment [8], in experiment [9], in experiment [10] and in experiment [11] was over 100 µM throughout.
`CCOc1cc(C2CC(c3ccc(NS(=O)(=O)c4cc([N+](=O)[O-])ccc4C)cc3)=NN2c2ccc([N+](=O)[O-])cc2[N+](=O)[O-])ccc1O` (centres undefined): the TGI was over 100 µM in experiment [1]; over 100 µM in experiment [2]; 34.5 µM in [3]; 39.5 µM in experiment [4]; 39.8 µM in [5]; 23.1 µM in [6]. The TGI in [7] was 41.1 µM; in [8], 52.4 µM; in experiment [10], 6.71 µM; in experiment [11] it was 34.2 µM.
For `CC1(C)CC(C)(C)C1=NNC(N)=O`, the TGI in [1], in [2], in experiment [3], in experiment [4], in [5] and in experiment [6] was over 100 µM throughout. The TGI in [7], in experiment [8], in experiment [9], in experiment [10] and in experiment [11] was over 100 µM throughout.
Regarding `COc1cc(/C=C2\Sc3scc(-c4cccc([N+](=O)[O-])c4)[n+]3C2=O)cc(OC)c1OC`, the TGI in experiment [1] amounted to 5.11 µM; in experiment [2], 82.1 µM; in [3], 46.5 µM; in experiment [4], 27.1 µM; in [5], 19 µM; in [6], 17.8 µM. Besides, the TGI in [7] was determined as 39.5 µM; in [8] it was 15.1 µM; in experiment [9], 24.2 µM; in [10] it was 22.2 µM; in experiment [11], 27.3 µM.
On to `COC(=O)c1c(O)ccc2c1c1c(n2Cc2cccc(C)c2)C(=O)c2ccccc2C1=O`, for which the TGI in experiment [1] amounted to 21 µM; in [2] it was 45.9 µM; in experiment [3] it was 27.9 µM; in experiment [4], 33.7 µM; in experiment [5] it was 19.8 µM; in experiment [6], 26.3 µM. The TGI in [7] stood at 30.2 µM; in experiment [8], 3.04 µM; in experiment [10], 25.8 µM; in [11], 26.8 µM.
Turning to `CCOC(=O)c1cc2c3c(c(C(C)=O)c(O)c2[nH]1)N(CC(C)CC)CC3` (centres undefined), the TGI in [1], in experiment [2], in experiment [3], in experiment [4], in experiment [5] and in experiment [7] was over 100 µM each time. Further, the TGI in experiment [8], in experiment [9], in experiment [10] and in experiment [11] was over 100 µM in each case.
In the case of `COC(=O)C(Cc1ccccc1)NP(=O)(O)OCC1OC(n2cc(F)c(=O)[nH]c2=O)CC1O` (centres undefined), the TGI is over 56.5 µM in [1]; over 100 µM in [2]; over 100 µM in experiment [3]; over 100 µM in [4]; over 100 µM in experiment [5]; over 100 µM in [6]. The TGI in experiment [7], in experiment [8], in experiment [9], in experiment [10] and in experiment [11] was over 100 µM throughout.
Regarding `COc1ccccc1NC(=O)CC(=O)N1N=C(C)C(N=Nc2ccc(C(=O)O)cc2)C1=O` (centres undefined), the TGI in [1], in [2], in experiment [3], in experiment [4], in experiment [5] and in experiment [6] was over 100 µM each time. Besides, the TGI in experiment [7], in experiment [8], in experiment [9], in experiment [10] and in experiment [11] was over 100 µM in each case.
Regarding `O=c1ccn(CC2(CO)CC(Cc3ccccc3)C2)c(=O)[nH]1` (centres undefined), the TGI in [1], in [2], in experiment [4], in experiment [5], in experiment [6] and in experiment [7] was over 100 µM throughout. Moreover, the TGI in [8], in [9], in [10] and in [11] was over 100 µM throughout.
